Test results published in PubChem BioAssay AID2060510 (Molecular Pharmacology Branch, DTP, NCI, 2025).

Test system: 439559-082-T-J2-PDC spheroids viability
Experiment: Anticancer human tumor 439559-082-T-J2-PDC patient-derived colon adenocarcinoma cell line growth inhibition [GQUAD]
Conditions: for IC50: curve of first compound; for viability, T/C: stronger effect = lower value
Method in brief: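 Tumor cells were grown as complex spheroids with HUVEC endothelial cells and mesenchymal stem cells as stroma. G-quadruplex stabilizers were combined with targeted agents over half-log dilutions from near the clinical Cmax, or from 10 microM.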

[1] = second compound 0.0316 µM, first compound 0.0316 µM
[2] = second compound 0.0316 µM, first compound 0.1 µM
[3] = second compound 0.0316 µM, first compound 0.316 µM
[4] = second compound 0.0316 µM, first compound 1 µM
[5] = second compound 0.0316 µM, first compound 3.16 µM
[6] = second compound 0.0316 µM, first compound 10 µM
[7] = second compound 0.1 µM, first compound 0.0316 µM
[8] = second compound 0.1 µM, first compound 0.1 µM
[9] = second compound 0.1 µM, first compound 0.316 µM
[10] = second compound 0.1 µM, first compound 1 µM
[11] = second compound 0.1 µM, first compound 3.16 µM
[12] = second compound 0.1 µM, first compound 10 µM
[13] = second compound 0.316 µM, first compound 0.0316 µM
[14] = second compound 0.316 µM, first compound 0.1 µM
[15] = second compound 0.316 µM, first compound 0.316 µM
[16] = second compound 0.316 µM, first compound 1 µM
[17] = second compound 0.316 µM, first compound 3.16 µM
[18] = second compound 0.316 µM, first compound 10 µM
[19] = second compound 1 µM, first compound 0.0316 µM
[20] = second compound 1 µM, first compound 0.1 µM
[21] = second compound 1 µM, first compound 0.316 µM
[22] = second compound 1 µM, first compound 1 µM
[23] = second compound 1 µM, first compound 3.16 µM
[24] = second compound 1 µM, first compound 10 µM
[25] = second compound 3.16 µM, first compound 0.0316 µM
[26] = second compound 3.16 µM, first compound 0.1 µM
[27] = second compound 3.16 µM, first compound 0.316 µM
[28] = second compound 3.16 µM, first compound 1 µM
[29] = second compound 3.16 µM, first compound 3.16 µM
[30] = second compound 3.16 µM, first compound 10 µM
[31] = second compound 10 µM, first compound 0.0316 µM
[32] = second compound 10 µM, first compound 0.1 µM
[33] = second compound 10 µM, first compound 0.316 µM
[34] = second compound 10 µM, first compound 1 µM
[35] = second compound 10 µM, first compound 3.16 µM
[36] = second compound 10 µM, first compound 10 µM
[37] = second compound 0.0316 µM, first compound 0.000999 µM
[38] = second compound 0.0316 µM, first compound 0.00316 µM
[39] = second compound 0.0316 µM, first compound 0.00999 µM
[40] = second compound 0.0316 µM, first compound 0.0999 µM
[41] = second compound 0.1 µM, first compound 0.000999 µM
[42] = second compound 0.1 µM, first compound 0.00316 µM
[43] = second compound 0.1 µM, first compound 0.00999 µM
[44] = second compound 0.1 µM, first compound 0.0999 µM
[45] = second compound 0.316 µM, first compound 0.000999 µM
[46] = second compound 0.316 µM, first compound 0.00316 µM
[47] = second compound 0.316 µM, first compound 0.00999 µM
[48] = second compound 0.316 µM, first compound 0.0999 µM
[49] = second compound 1 µM, first compound 0.000999 µM
[50] = second compound 1 µM, first compound 0.00316 µM
[51] = second compound 1 µM, first compound 0.00999 µM
[52] = second compound 1 µM, first compound 0.0999 µM
[53] = second compound 3.16 µM, first compound 0.000999 µM
[54] = second compound 3.16 µM, first compound 0.00316 µM
[55] = second compound 3.16 µM, first compound 0.00999 µM
[56] = second compound 3.16 µM, first compound 0.0999 µM
[57] = second compound 10 µM, first compound 0.000999 µM
[58] = second compound 10 µM, first compound 0.00316 µM
[59] = second compound 10 µM, first compound 0.00999 µM
[60] = second compound 10 µM, first compound 0.0999 µM
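Note: spheroids exposed to the agents for 7 days before readout.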
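Throughout, for viability, T/C: percent of luminescence signal in DMSO vehicle wells taken as 100% viability.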

## C=CC(=O)N1CCN(c2nc(=O)n(-c3c(C)ccnc3C(C)C)c3nc(-c4c(O)cccc4F)c(F)cc23)C(C)C1 (stereo not drawn) + Cc1[nH]c2ccc(F)cc2c1-c1nc2c3cccnc3c3ncccc3c2[nH]1
Second compound 0.0316 µM
  IC50: > 10000 nM
Second compound 0.1 µM
  IC50: > 10000 nM
Second compound 0.316 µM
  IC50: > 10000 nM
Second compound 1 µM
  IC50: > 10000 nM
Second compound 3.16 µM
  IC50: > 10000 nM
Second compound 10 µM
  IC50: > 10000 nM
[1]
  viability, T/C: 106%
[2]
  viability, T/C: 92.6%
[3]
  viability, T/C: 99.3%
[4]
  viability, T/C: 103%
[5]
  viability, T/C: 109%
[6]
  viability, T/C: 101%
[7]
  viability, T/C: 103%
[8]
  viability, T/C: 95.5%
[9]
  viability, T/C: 101%
[10]
  viability, T/C: 95.4%
[11]
  viability, T/C: 112%
[12]
  viability, T/C: 96.5%
[13]
  viability, T/C: 108%
[14]
  viability, T/C: 95.1%
[15]
  viability, T/C: 102%
[16]
  viability, T/C: 103%
[17]
  viability, T/C: 104%
[18]
  viability, T/C: 97.8%
[19]
  viability, T/C: 89.3%
[20]
  viability, T/C: 103%
[21]
  viability, T/C: 93.4%
[22]
  viability, T/C: 93.8%
[23]
  viability, T/C: 100%
[24]
  viability, T/C: 88.7%
[25]
  viability, T/C: 89.1%
[26]
  viability, T/C: 90.5%
[27]
  viability, T/C: 85.6%
[28]
  viability, T/C: 92.4%
[29]
  viability, T/C: 92.1%
[30]
  viability, T/C: 80.2%
[31]
  viability, T/C: 64.6%
[32]
  viability, T/C: 73.1%
[33]
  viability, T/C: 84%
[34]
  viability, T/C: 76%
[35]
  viability, T/C: 79.3%
[36]
  viability, T/C: 80.3%

## CC[C@@]1(O)C(=O)OCc2c1cc1n(c2=O)Cc2cc3c(CN(C)C)c(O)ccc3nc2-1 + Cc1[nH]c2ccc(F)cc2c1-c1nc2c3cccnc3c3ncccc3c2[nH]1
Second compound 0.0316 µM
  IC50: > 316 nM
Second compound 0.1 µM
  IC50: > 316 nM
Second compound 0.316 µM
  IC50: > 316 nM
Second compound 1 µM
  IC50: > 316 nM
Second compound 3.16 µM
  IC50: > 316 nM
Second compound 10 µM
  IC50: > 316 nM
[37]
  viability, T/C: 99.4%
[38]
  viability, T/C: 109%
[39]
  viability, T/C: 94.5%
[1]
  viability, T/C: 99.7%
[40]
  viability, T/C: 96.3%
[3]
  viability, T/C: 82.4%
[41]
  viability, T/C: 101%
[42]
  viability, T/C: 102%
[43]
  viability, T/C: 99.5%
[7]
  viability, T/C: 96.2%
[44]
  viability, T/C: 103%
[9]
  viability, T/C: 83%
[45]
  viability, T/C: 98.1%
[46]
  viability, T/C: 92.1%
[47]
  viability, T/C: 89.1%
[13]
  viability, T/C: 99.2%
[48]
  viability, T/C: 90.5%
[15]
  viability, T/C: 83.3%
[49]
  viability, T/C: 94%
[50]
  viability, T/C: 101%
[51]
  viability, T/C: 98.6%
[19]
  viability, T/C: 84.9%
[52]
  viability, T/C: 93.3%
[21]
  viability, T/C: 83.6%
[53]
  viability, T/C: 81.8%
[54]
  viability, T/C: 81.2%
[55]
  viability, T/C: 88.9%
[25]
  viability, T/C: 78.2%
[56]
  viability, T/C: 86.2%
[27]
  viability, T/C: 73.5%
[57]
  viability, T/C: 86.4%
[58]
  viability, T/C: 78.7%
[59]
  viability, T/C: 75.3%
[31]
  viability, T/C: 76%
[60]
  viability, T/C: 90.1%
[33]
  viability, T/C: 56.9%

## CCc1c2c(nc3ccc(O)cc13)-c1cc3c(c(=O)n1C2)COC(=O)[C@]3(O)CC + Cc1[nH]c2ccc(F)cc2c1-c1nc2c3cccnc3c3ncccc3c2[nH]1
Second compound 0.0316 µM
  IC50: 223 nM
Second compound 0.1 µM
  IC50: > 316 nM
Second compound 0.316 µM
  IC50: > 316 nM
Second compound 1 µM
  IC50: 227 nM
Second compound 3.16 µM
  IC50: 85.4 nM
Second compound 10 µM
  IC50: 167 nM
[37]
  viability, T/C: 93.4%
[38]
  viability, T/C: 90.6%
[39]
  viability, T/C: 88.5%
[1]
  viability, T/C: 78.6%
[40]
  viability, T/C: 63.2%
[3]
  viability, T/C: 44.2%
[41]
  viability, T/C: 102%
[42]
  viability, T/C: 93.1%
[43]
  viability, T/C: 73.2%
[7]
  viability, T/C: 73.8%
[44]
  viability, T/C: 65.8%
[9]
  viability, T/C: 49.3%
[45]
  viability, T/C: 109%
[46]
  viability, T/C: 97.1%
[47]
  viability, T/C: 84.5%
[13]
  viability, T/C: 76.4%
[48]
  viability, T/C: 70.2%
[15]
  viability, T/C: 51.1%
[49]
  viability, T/C: 90.9%
[50]
  viability, T/C: 79.8%
[51]
  viability, T/C: 77.8%
[19]
  viability, T/C: 70.7%
[52]
  viability, T/C: 65.6%
[21]
  viability, T/C: 43.6%
[53]
  viability, T/C: 89.1%
[54]
  viability, T/C: 74.3%
[55]
  viability, T/C: 62.9%
[25]
  viability, T/C: 65.6%
[56]
  viability, T/C: 51.9%
[27]
  viability, T/C: 32.5%
[57]
  viability, T/C: 73%
[58]
  viability, T/C: 75.3%
[59]
  viability, T/C: 65.6%
[31]
  viability, T/C: 60.7%
[60]
  viability, T/C: 63.1%
[33]
  viability, T/C: 39%

## COc1cc(C2c3cc4c(cc3C(OC3OC5COC(C)OC5C(O)C3O)C3COC(=O)C23)OCO4)cc(OC)c1O (stereo not drawn) + Cc1[nH]c2ccc(F)cc2c1-c1nc2c3cccnc3c3ncccc3c2[nH]1
Second compound 0.0316 µM
  IC50: > 10000 nM
Second compound 0.1 µM
  IC50: > 10000 nM
Second compound 0.316 µM
  IC50: > 10000 nM
Second compound 1 µM
  IC50: > 10000 nM
Second compound 3.16 µM
  IC50: > 10000 nM
Second compound 10 µM
  IC50: > 10000 nM
[1]
  viability, T/C: 98.1%
[2]
  viability, T/C: 99.7%
[3]
  viability, T/C: 97.9%
[4]
  viability, T/C: 87.8%
[5]
  viability, T/C: 86.5%
[6]
  viability, T/C: 66.1%
[7]
  viability, T/C: 102%
[8]
  viability, T/C: 98.2%
[9]
  viability, T/C: 97.5%
[10]
  viability, T/C: 87.1%
[11]
  viability, T/C: 96.9%
[12]
  viability, T/C: 64.9%
[13]
  viability, T/C: 108%
[14]
  viability, T/C: 101%
[15]
  viability, T/C: 103%
[16]
  viability, T/C: 94.2%
[17]
  viability, T/C: 85.6%
[18]
  viability, T/C: 65.3%
[19]
  viability, T/C: 98.2%
[20]
  viability, T/C: 87.8%
[21]
  viability, T/C: 89.4%
[22]
  viability, T/C: 83.8%
[23]
  viability, T/C: 86.7%
[24]
  viability, T/C: 58.9%
[25]
  viability, T/C: 76.5%
[26]
  viability, T/C: 85.2%
[27]
  viability, T/C: 84.1%
[28]
  viability, T/C: 73.5%
[29]
  viability, T/C: 79.9%
[30]
  viability, T/C: 56.7%
[31]
  viability, T/C: 88.5%
[32]
  viability, T/C: 85.3%
[33]
  viability, T/C: 83.8%
[34]
  viability, T/C: 90.6%
[35]
  viability, T/C: 78.5%
[36]
  viability, T/C: 57.2%
